Test results from publication doi:10.1101/2021.06.06.447270v1 (biorxiv, 2021).

Molecular target: hCD36ecto (CD36ecto; human CD36 ectodomain) (Homo sapiens, UniProt P16671)
Assay: isothermal titration calorimetry
Assay type: binding

Chain of hCD36ecto (CD36ecto; human CD36 ectodomain) (P16671 30-439 limits assumed): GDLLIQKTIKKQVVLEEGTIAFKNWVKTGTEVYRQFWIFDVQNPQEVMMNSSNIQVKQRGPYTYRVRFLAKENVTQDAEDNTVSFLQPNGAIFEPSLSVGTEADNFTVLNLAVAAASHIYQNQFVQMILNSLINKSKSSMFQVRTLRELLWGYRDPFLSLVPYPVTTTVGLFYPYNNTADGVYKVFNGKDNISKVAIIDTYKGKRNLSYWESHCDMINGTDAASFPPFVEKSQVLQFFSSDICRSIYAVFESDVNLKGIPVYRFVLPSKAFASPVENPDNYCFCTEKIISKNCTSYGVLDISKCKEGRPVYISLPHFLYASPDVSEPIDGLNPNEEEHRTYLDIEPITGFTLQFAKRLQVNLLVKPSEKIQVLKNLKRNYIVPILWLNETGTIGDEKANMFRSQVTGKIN

Question: Which Kd does the source give for `C=CC1=C(C)C2=Cc3c(C=C)c(C)c4[n]3[Fe]([Cl])[n]3c(c(C)c(CCC(=O)O)c3=CC3=NC(=C4)C(C)=C3CCC(=O)O)=CC1=N2` [hemin] here?
Answer: 1260 ± 240 nM
